Experimental data: patent US6825185B2, “Substituted aryl compounds as novel cyclooxygenase-2 selective inhibitors, compositions and methods of use” (NitroMed, Inc., priority 2000, dated 2004)

Tests used:
COX-1 [1] = target: T1, COX-1 (Homo sapiens, UniProt P23219); experiment: COX-1 enzyme activity in human whole blood (A23187 stimulated, thromboxane B2 EIA); type: cell-based; design: Human blood (≈50 mL) from male or female donors who had not received any aspirin or NSAIDs for 14 days; endogenous in cells; host or cells: human whole blood from donors; conditions: test compound at 100 μM
Description: (§1) The assay for COX-1 and COX-2 enzyme activity, in the human whole blood was performed as described in Brideau et al., Inflamm Res., 45: 68-74 (1996)). Human blood (≈50 mL) from male or female donors who had not received any aspirin or NSAIDs for 14 days was collected at two local area blood donor centers and placed in polypropylene syringes containing sodium heparin (20 units per mL blood, final concentration). The blood was transported to the laboratory on ice packs and used within 1.5 hours of collection. Upon receipt in the laboratory, the blood was allowed to come to room temperature for 15 minutes prior to distribution in 1 mL aliquots per well of 24 well tissue culture plates. The plates were then placed on a gently rotating platform shaker in a 5% CO2 incubator at 37° C. for 15 minutes. Test compounds were dissolved in DMSO, at 1000 fold the final desired concentration, and further diluted, as indicated, in DMSO. One μL of each dilution of the test compound was added per well, in duplicate wells; wells not receiving test compound (e.g., basal, background or control wells) received 1 μL DMSO.
(§2) To induce COX-2, lipopolysaccharide (LPS) from E. coli (LPS, serotype 026:B6 or serotype 0127:B8, Sigma Chemical Co., St. Louis, Mo., Catalogue No. L3755 or L3129, respectively) was added at 10 μg/mL (2 μL of 5 mg/mL LPS in DMSO) to appropriate wells 15 minutes after the addition of the test compound. (Basal or background wells not incubated with LPS received 2 μL of DMSO.) For the stimulation of COX-1, the calcium ionophore, A23187 (free acid from Sigma Chemical Co., St. Louis, Mo., Catalogue No. C7522) was added at 25 μM (1 μL of 25 mM stock in DMSO) to separate wells 4.5 hours after the addition of the test compound. (Again, basal, background or control wells not stimulated with A23187 received 1 μL of DMSO.) At 5 hours after the addition of the test compound, all incubations were terminated by placement on ice and the addition of 2 mM EGTA (100 μL of 20 mM EGTA, tetrasodium, in PBS (phosphate buffered saline) without Ca^++ and Mg^++, pH 7.2)). The resulting solutions, were transferred by polyethylene transfer pipettes to 15 mL polypropylene centrifuge tubes and centrifuged at 1200 g for 10 minutes at 4° C. One hundred μL of plasma was removed from each blood sample and added to 1 mL of methanol in new 15 mL polypropylene centrifuge tubes, vortexed, and stored overnight at −20° C. The next day, the samples were centrifuged at 2000 g for 10 minutes at 4° C. and the supernatants transferred to glass tubes and evaporated to dryness. The samples were assayed for thromboxane B2 using EIA kits supplied by Cayman Chemical Co. (Ann Arbor, Mich., Catalogue No. 519031) in duplicate wells after reconstitution with EIA Buffer and appropriate dilution (2000 fold for COX-1 and 500 fold for Cox-2 samples).

COX-2 [2] = target: T2, COX-2 (Homo sapiens, UniProt P35354); experiment: COX-2 enzyme activity in human whole blood (LPS induced, thromboxane B2 EIA); type: cell-based; design: Human blood (≈50 mL) from male or female donors who had not received any aspirin or NSAIDs for 14 days; endogenous in cells; host or cells: human whole blood from donors, LPS-induced; conditions: test compound at 10 μM
T2 sequence (P35354 18-604): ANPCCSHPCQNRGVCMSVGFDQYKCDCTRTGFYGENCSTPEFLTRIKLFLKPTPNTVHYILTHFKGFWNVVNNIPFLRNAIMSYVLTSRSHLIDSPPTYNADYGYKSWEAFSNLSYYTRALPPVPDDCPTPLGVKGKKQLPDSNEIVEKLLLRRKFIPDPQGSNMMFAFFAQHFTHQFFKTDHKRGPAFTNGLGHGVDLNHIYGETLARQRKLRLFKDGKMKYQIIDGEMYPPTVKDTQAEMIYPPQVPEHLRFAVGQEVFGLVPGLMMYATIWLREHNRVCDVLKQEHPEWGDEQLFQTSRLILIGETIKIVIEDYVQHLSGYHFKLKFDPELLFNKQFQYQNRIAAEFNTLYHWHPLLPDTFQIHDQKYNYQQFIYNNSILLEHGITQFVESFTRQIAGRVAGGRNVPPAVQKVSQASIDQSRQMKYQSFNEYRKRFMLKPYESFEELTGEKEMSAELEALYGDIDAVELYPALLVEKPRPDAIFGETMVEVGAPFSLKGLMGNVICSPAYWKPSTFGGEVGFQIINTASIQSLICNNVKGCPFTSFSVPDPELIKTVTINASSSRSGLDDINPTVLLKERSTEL
Description: as §1, with “Human” for “The assay for COX-1 and COX-2 enzyme activity, in the human whole blood was performed as described in Brideau et al., Inflamm Res., 45: 68-74 (1996)). Human”
as §2, with “(Basal or background wells not incubated with LPS received 2 μL of DMSO.) For the stimulation of COX-1, the calcium ionophore, A23187 (free acid from Sigma Chemical Co., St. Louis, Mo., Catalogue No. C7522) was added at 25 μM (1 μL of 25 mM stock in DMSO) to separate wells 4.5 hours after the addition of the test compound.” left out, “dryness.” for “dryness. The samples were assayed for thromboxane B2 using EIA kits supplied by Cayman Chemical Co. (Ann Arbor, Mich., Catalogue No. 519031) in duplicate wells after reconstitution with EIA Buffer and appropriate dilution (2000 fold for COX-1 and 500 fold for Cox-2 samples).”

COX-1 [3] = target: T1, COX-1; experiment: Human COX-1 enzyme activity (COX Inhibitor Screening Assay, prostaglandin EIA); type: biochemical; design: purchased Cayman Chemical; conditions: test compound at 100 μM
Description: (§3) The human COX-1 and COX-2 enzyme activities and the measurement of the prostaglandin products synthesized were performed using the COX Inhibitor Screening Assay (Cayman Chemical, Ann Arbor, Mich.), which also contained the Prostaglandin Screening EIA Kit, used for prostaglandin quantification). The test compounds were dissolved at 50 times the highest final reaction concentration in DMSO or any other suitable solvent as stock solutions. These stock solutions were then diluted in the same solvent. Eight glass test tubes (13×100 mm) were placed in a 25° C. water bath. To each test tube was added 950 μL of reaction buffer (0.1 M Tris-HCl, pH 8.0, containing 5 mM EDTA, and 2 mM phenol), 10 μL of 100 µM heme solution, and 10 μL (5 units) of either human COX-1 or COX-2 enzyme and the resulting mixture was incubated for 2 minutes. Twenty μL of the solvent was added to one tube (100% initial activity or solvent control) and 20 μL of each dilution of the test compound was added to one tube each. Each tube was vortexed immediately after the addition. The enzyme was incubated with the inhibitor for 20 minutes at 25° C. The enzymatic reaction was then initiated by the addition of 10 μL of freshly prepared 10 mM arachidonic acid (neutralized with KOH), vortexed and then incubated for 2 minutes (or, in some cases as indicated, 30 seconds) at 37° C. The reaction was terminated by the addition of 50 μL of 1 M HCl, vortexed and placed at room temperature. One hundred μL of a saturated stannous chloride solution (50 mg/mL of 0.1 M HCl) was added and the reaction mixture was allowed to stand at room temperature for at least 5 minutes.
(§4) The prostaglandins (PG) produced in the reactions were assayed, after a 2,000-fold dilution, using the Prostaglandin Screening EIA Kit (Cayman Chemical, Ann Arbor, Mich.). The assay contains an antibody with broad specificity for all the prostaglandin families (PGF, PGE, PGD, and thromboxane B-type) synthesized in the COX-1/COX-2 reactions. The synthesized prostaglandin competes with a PG-tagged acetylcholine esterase tracer for binding to the PG antibody. Binding of synthesized PG lowers the colorimetric development of the Ellman's Reagent (computed as %B/B0). The actual amount of synthesized PG was interpolated from a standard curve using known amounts of supplied prostaglandin E2 (PGE2) (PGE2 concentration vs. %B/B0). The data generated were the mean±standard deviation of triplicate wells in the EIA for a single reaction at a given inhibitor concentration. A plot of % of control (i.e., the solvent control without inhibitor) vs. test compound inhibitor concentration for both isoenzymes was used to determine the IC50 's for COX-1 and COX-2 for that test compound, when IC50's were calculated. The % inhibition for COX-1 and COX-2 enzyme activity by the test compounds at the indicated concentrations are given in Table 1.

COX-2 [4] = target: T2, COX-2; experiment: Human COX-2 enzyme activity (COX Inhibitor Screening Assay, prostaglandin EIA); type: biochemical; design: purchased Cayman Chemical; conditions: test compound at 10 μM
Description: as §3
as §4, with “concentration.” for “concentration. A plot of % of control (i.e., the solvent control without inhibitor) vs. test compound inhibitor concentration for both isoenzymes was used to determine the IC50 's for COX-1 and COX-2 for that test compound, when IC50's were calculated. The % inhibition for COX-1 and COX-2 enzyme activity by the test compounds at the indicated concentrations are given in Table 1.”

T1 sequence (P23219 24-599): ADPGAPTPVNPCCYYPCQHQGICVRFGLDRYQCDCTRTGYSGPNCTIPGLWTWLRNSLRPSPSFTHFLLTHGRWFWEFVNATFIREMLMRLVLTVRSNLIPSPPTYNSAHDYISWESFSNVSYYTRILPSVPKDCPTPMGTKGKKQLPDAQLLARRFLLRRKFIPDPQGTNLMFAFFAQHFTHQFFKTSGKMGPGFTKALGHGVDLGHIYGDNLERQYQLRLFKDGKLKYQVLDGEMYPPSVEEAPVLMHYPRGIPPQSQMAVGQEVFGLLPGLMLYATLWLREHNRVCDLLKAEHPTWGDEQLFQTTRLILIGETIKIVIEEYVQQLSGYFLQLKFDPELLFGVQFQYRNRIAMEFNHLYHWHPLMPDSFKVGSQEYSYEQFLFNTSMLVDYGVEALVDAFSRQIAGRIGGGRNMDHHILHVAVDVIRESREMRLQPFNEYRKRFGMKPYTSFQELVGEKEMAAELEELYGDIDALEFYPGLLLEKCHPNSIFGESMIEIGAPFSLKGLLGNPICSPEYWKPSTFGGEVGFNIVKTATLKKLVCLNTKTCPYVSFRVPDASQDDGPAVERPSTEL

| Compound | melting point [°C] | inhibition at 100 µM (COX-1 [1]) [%] | inhibition at 10 µM (COX-2 [2]) [%] | COX-1 Inhibition (% at 100 μM) (COX-1 [3]) [%] | COX-1 Inhibition (% at 100 μM) (COX-1 [1]) [%] | COX-2 Inhibition (% at 10 μM) (COX-2 [4]) [%] |
| --- | --- | --- | --- | --- | --- | --- |
| CS(=O)(=O)c1ccc(-c2ccccc2C=C2CCCCC2)cc1 [Example 24e, 1-(2-(Cyclohexylidenemethyl)phenyl)-4-(methylsulfonyl)benzene] | 83 | 55 | 90 | – | – | – |
| CS(=O)(=O)c1ccc(-c2cc3c(cc2C=C2CCCCC2)OCO3)cc1 [Example 1d, 1-(6-(Cyclohexylidenemethyl)(2-H-benzo(3,4-d) 1,3-dioxolen-5-yl))-4-(methylsulfonyl)benzene] | – | – | – | 5 | 50 | – |
| CS(=O)(=O)c1ccc(-c2ccccc2Cc2cccc(F)c2)cc1 [Example 26, 1-(2-((3-Fluorophenyl)methyl)phenyl)-4-(methylsulfonyl)benzene] | 97 to 98 | 25 | 10 | – | – | – |
| CS(=O)(=O)c1ccc(-c2cc3c(cc2CN2CCCC(CO[N+](=O)[O-])C2)OCO3)cc1 (stereo not drawn) [Example 8c, 4-(Methylsulfonyl)-1-(6-((3-((nitrooxy)methyl)piperidyl)methyl)(2H-benzo(3,4-d) 1,3-dioxolan-5-yl))benzene] | – | – | – | 25 | – | 80 |
| CS(=O)(=O)c1ccc(-c2cc3c(cc2C(=O)c2cccnc2)OCO3)cc1 [Example 6d, 6-(4-(Methylsulfonyl)phenyl)(2H-benzo(d)1,3-dioxolan-5-yl) 3-pyridyl ketone] | – | – | – | 20 | – | 20 |
| CS(=O)(=O)c1ccc(-c2cc3c(cc2CC2CCCC2)OCO3)cc1 [Example 10b, 4-(6-(Cyclopenthylmethyl)(2H-benzo(3,4-d)1,3-dioxolan-5-yl))-1-(methylsulfonyl)benzene] | – | – | – | 20 | – | 70 |
| CS(=O)(=O)c1ccc(-c2cc3c(cc2CN2CCCC(CO)C2)OCO3)cc1 (stereo not drawn) [Example 8b, 1-(6-((3-(Hydroxymethyl)piperidyl)methyl)(2H-benzo(3,4-d)1,3-dioxolan-5-yl))-4-(methylsulfonyl)benzene] | – | – | – | 0 | – | 30 |
| CS(=O)(=O)c1ccc(-c2cc3c(cc2C=C2CCCCCC2)OCO3)cc1 [Example 11b, 4-(6-(Cycloheptylidenemethyl)(2H-benzo(3,4-d)1,3-dioxolan-5-yl))-1-(methylsulfonyl) benzene] | – | – | – | 10 | 40 | – |
